# From patent publication US7314959B2, “Amino thiol compounds and compositions for use in conjunction with cancer therapy” (Wisconsin Alumni Research Foundation, priority 2003, dated 2008)
# Tested on: Cytoxan-induced alopecia in rat pups
# Assay: Cytoxan-induced alopecia in rat pups
# Format: in vivo
# Experimental: Induction of alopecia by cytoxan (CTX). Lactating Sprague Dawley mother rats with rat pups were purchased from Harlan Sprague Dawley (Indianapolis, Ind.). The mother rats were given food and water ad libitum. The rats pups were tested in the model of chemotherapy-induced alopecia described by Hussein A. M. et al., Science: 249, 1564 (1990). Cytoxan (CTX), a chemotherapeutic widely used in the treatment of cancer, was used to induce alopecia in the rats. A common side effect of cytoxan treatment in patients is alopecia. Lyophilized vials of Cytoxan were obtained from Mead-Johnson. To produce CTX-induced alopecia, 11 day old rat pups, which are at the peak of coat growth, were injected i.p. with 30-35 μg of CTX/gm body weight. CTX was dissolved in water. By day 18 of life, the animals have shed virtually 100% of their coat leaving bare skin on their backs. Thus, topical application of protective drugs to the animal's back prior to the CTX insult provides a suitable test for prevention of chemotherapy-induced alopecia. A separate alopecia assay was also developed in which whole-body irradiation on day 11 of life was used as the insult. This assay is described in further detail in Example 12 which follows.
# In the earliest studies with chemoprotective polyamines, the molecules were prepared in a topical delivery vehicle consisting of from 50-70% ethanol in water, depending on the solubility of the compound. The compounds in ethanol/water solution from 50-150 µl in volume were topically administered to the backs of the pups once per day before and after CTX challenge. Using a micropipette, the formulation was applied to an approximately 2 cm2 section of skin on the backs of the rat pups. Specifically, the pups were treated once daily for the 4-5 days before CTX challenge, once on the day of CTX challenge and once daily for 5 days afterwards. Control groups consisted of pups receiving only delivery vehicle. […]
# In the earliest studies with chemoprotective polyamines, hair loss was evaluated using a modified alopecia-scoring index described by Chen G. et al., Int. […] In the later studies with aminothiols a simpler scoring scale was adopted in which coat density was scored on a 0-100 scale as “% of normal coat density.”
# Method: To assess the ability of topical treatments to prevent Cytoxan-induced alopecia we used a published protocol (Hussein et al., Science. 249(4976):1564-6, 1990) in which 11 day old neonate rat pups (Sprague-Dawley) receive a total of 6 topical skin treatments of active agent(s) during the 5 hr before and 2 hr after a single ip dose of Cytoxan (32 ug/gm b.w.). […] The density of the rat coats in the topical treatment area was scored on day 18 of life for animals injected with Cytoxan.
structure (smiles),measurement,setting,value
"CNCC(CS)CNC [PrC-210, 3-methylamino-2-methylaminomethyl-propane-1-thiol]",Alopecia Score (% Normal Coat Density in Topical Treatment Area),"2000 mM PrC-210 alone, ip Cytoxan 32 ug/gm b.w., Experiment 552-555",9%
same,effect in preventing Cytoxan-induced alopecia,"neonate rats, three days topical resveratrol and/or topical PrC-210",weak effect
